Data taken from US8119563B2, “N-substituted azacycles” (FMC Corporation, priority 2003, dated 2012).

Test system: tobacco budworm (Heliothis virescens [Fabricius])
Assay: surface-treated diet test, insecticidal activity against tobacco budworm
Format: in vivo
Settings: 0.25 millimoles of candidate insecticide on the surface of the diet, second instar larvae, five-day exposure; for Percent Mortality: compared to total number of insects infested; for Percent Growth Inhibition: inhibition of insect weight relative to untreated controls
Procedure, shortened: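 Wheat germ artificial diet surface-treated with compound from 50 mM DMSO stock diluted 1:7 in 1:1 water/acetone (0.25 millimolar on diet), or lower-rate dilutions; DMSO-only controls. One second-instar larva per well, 25° C, 60% RH, 14 h light, five days; percent weight inhibition versus untreated and percent mortality scored.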

SMILES | Percent Mortality [%] | Percent Growth Inhibition [%]
CC(C)OC(=O)Nc1ccc(CN2CCC(O)(C(c3ccc(OC(F)(F)F)cc3)c3ccc(OC(F)(F)F)cc3)CC2)cc1 [Compound 29] | 100 | 100
CC1(C)[C@@H]2CCC1(CS(=O)(=O)[O-])C(=O)C2.OC1(C(c2ccc(OC(F)(F)F)cc2)c2ccc(OC(F)(F)F)cc2)CC[N+](O)(Cc2ccc(Oc3ccccn3)cc2)CC1 (centres unmarked) [Compound 505] | 100 | 100
OC1(C(c2cc(F)cc(F)c2)c2cc(F)cc(F)c2)CCN(Cc2ccc(Oc3ncccn3)cc2)CC1 [Compound 10] | 0 | 50
CCn1nnc(-c2ccc(CN3CCC(O)(C(c4ccc(C(F)(F)F)cc4)c4ccc(C(F)(F)F)cc4)CC3)cc2)n1 [Compound 27] | 100 | 100
CCOC(OCC)c1ccc(CN2CCC(O)(C(c3ccc(OC(F)(F)F)cc3)c3ccc(OC(F)(F)F)cc3)CC2)cc1 [Compound 273] | 100 | 100
Cc1cc(Cl)ccc1C(c1ccc(OC(F)(F)F)cc1)C1(O)CC[N+]([O-])(Cc2ccc(Oc3ccccn3)cc2)CC1 (centres unmarked) [Compound 461] | 100 | 100
[O-][N+]1(Cc2ccc(C3OCCCO3)cc2)CCC(O)(C(c2ccc(OC(F)(F)F)cc2)c2ccc(OC(F)(F)F)cc2)CC1 (centres unmarked) [Compound 370] | 100 | 100
